# According to US10799467B2, “Use of the phytocannabinoid cannabidivarin (CBDV) in the treatment of epilepsy” (GW Pharma Limited, priority 2010, dated 2020):
# Marks after values point to notes of the source that are not given here.
# How the values were obtained:
# [1] = system: epileptiform burst activity in hippocampal slices (Mg2+-free model); assay: Mg2+-free in vitro epileptiform model in hippocampal brain slices (multi-electrode array); assay type: cell-based, Wistar rats
# Protocol: (§1) Use of isolated CBDV in two in vitro epileptiform models in hippocampal brain slices
# (§2) Hippocampal slices were produced acutely from P>21 Wistar rats and activity recorded by multi-electrode arrays (MEA).
# (§3) To induce epileptiform activity, either Mg^2+ was removed (Mg^2+-free model) or 100 μM 4-aminopyridine was added (4-AP model). 30 min after epileptiform burst activity was established, CBDV was added cumulatively (1, 10, 100 μM; 30 min each).
# (§4) The effects of CBDV on epileptiform burst amplitude and duration were measured (Table 2.1).
# [2] = system: epileptiform burst activity in hippocampal slices (4-AP model); assay: 4-AP in vitro epileptiform model in hippocampal brain slices (multi-electrode array); assay type: cell-based, Wistar rats
# Protocol: as §1, §2, §3, §4
# MES-induced seizure = assay: Maximal electroshock seizure (MES) model of epilepsy; assay type: in vivo, Mouse/ICR; conditions: for Incidence of Tonic convulsion: Table 10.2, 10 mice per group, vehicle 9/10
# Protocol: The vehicle used in this study was 2:1:17 (ethanol:Cremophor:0.9% ^w/v, NaCl). The test compounds used were cannabidiol (CBD) and cannabidivarin (CBDV). These were made to a solution at the highest concentration; these were then dissolved in ethanol before combination with Cremophor and 0.9% NaCl in the proportion described above. The CBD or CBDV were administered intraperitoneally at a volume of 10 ml/kg body weight. The SAED valproic acid (VBA) was dissolved in saline.
# Animal Species/Strain: Mouse/ICR, Microbiological grade: SPF, Supplier: SLC Japan, Inc. […] Temperature: 23±2° C., Humidity: 60±10%, Light conditions: 7 AM to 7 PM for the light period, 7 PM to 7 AM for the dark period. Chow and water: Free access to CRF-1 (Oriental Yeast Co, Ltd) and tap water.
# One day before each experiment, mice were weighed and randomized into several groups in each test. On the morning of the experiment day, body weight was measured in order to calculate the administration volume of each animal. Vehicle, CBD, CBDV or valproic acid sodium salt was interperitoneally administered 30 minutes before electric stimuli. Maximal electroshock seizures (MES) in mice was induced by a stimulator (UGO BASILE ECT UNIT 7801, Italia) using a current of 30 mA delivered with a pulse frequency of 100 Hz for 200 msec through earlap electrodes.
# All statistical analyses were performed using SAS Software for Windows, Release 9.1 (SAS Institute Japan). The difference of the number (hindlimb extension or deaths) in each group was assessed using two-tailed Fisher's exact test.
# motor function = assay: Linearly accelerating rotarod test of motor function; assay type: in vivo, rats; conditions: for time remaining on the rotarod (latency to fall): 60 minutes after administration, vehicle 111.6 seconds
# Protocol: Each animal received either CBDV (100 or 200 mg/kg, n=10 for each group) or vehicle (2:1:17 Cremophor:ethanol:saline [n=12] or saline [n=11]) on a given experimental day. Experimental test days were separated by a two day rest period to allow for clearance of previous compounds. The order of drug administration was randomised using a standard Latin square design.
# 60 minutes after CBDV or vehicle administration, animals were placed on a linearly accelerating rotarod (Panlab/Harvard Apparatus, Holliston, USA) that increased in speed from 4 to 40 rpm over a 300 second period. An accelerating protocol was employed to eliminate the need for habituation to the rotarod, minimising divergence in the results obtained for each animal owing to disproportionate improvements in performance. Each test ended when the animal fell from the rotarod, with each animal performing three accelerating rotarod runs per experimental day. Animals were allowed a 5 minute recovery between tests to prevent fatigue-induced declines in performance. Mean latency in seconds to fall from the rotarod was compared between vehicle control and CBDV groups to assess motor function.
# To assess whether there were significant effects on motor function between the two different vehicle treatments, we subjected the data to Mann-Whitney U test. Lack of significance in this analysis would allow us to combine vehicle groups thereby reducing duration of testing (i.e. each rat would undertake only one vehicle treatment test day rather than two). For analysis of CBDV effects on motor function, data were subjected to a between-subjects 1-way ANOVA with drug concentration as the main factor. In all cases, P≤0.05 was considered to be significant.
compound,measurement,setting,value
"C=C(C)[C@@H]1CCC(C)=C[C@H]1c1c(O)cc(CCC)cc1O [CBDV, Cannabidivarin]",Burst amplitude (% of control) CA1,[1]; CBDV 1 μM,82.23 ± 10.4 % of control
same,Burst duration (% of control) CA1,[1]; CBDV 1 μM,99.3 ± 4.5 % of control
same,Burst amplitude (% of control) CA3,[1]; CBDV 1 μM,112.7 ± 13.7 % of control
same,Burst duration (% of control) CA3,[1]; CBDV 1 μM,101.7 ± 2.3 % of control
same,Burst amplitude (% of control) DG,[1]; CBDV 1 μM,89.8 ± 8.6 % of control
same,Burst duration (% of control) DG,[1]; CBDV 1 μM,90.6 ± 4.5 % of control
same,Burst amplitude (% of control) CA1,[1]; CBDV 10 μM,79.9 ± 6.9 % of control
same,Burst duration (% of control) CA1,[1]; CBDV 10 μM,91.2 ± 3.8 % of control
same,Burst amplitude (% of control) CA3,[1]; CBDV 10 μM,104.8 ± 10.3 % of control
same,Burst duration (% of control) CA3,[1]; CBDV 10 μM,93.9 ± 4.1 % of control
same,Burst amplitude (% of control) DG,[1]; CBDV 10 μM,86.4 ± 3.6 % of control
same,Burst duration (% of control) DG,[1]; CBDV 10 μM,92.0 ± 3.2 % of control
same,Burst amplitude (% of control) CA1,[1]; CBDV 100 μM,80.4 ± 8.0 % of control
same,Burst duration (% of control) CA1,[1]; CBDV 100 μM,74.0 ± 5.8 % of control
same,Burst amplitude (% of control) CA3,[1]; CBDV 100 μM,102.9 ± 13.0 % of control
same,Burst duration (% of control) CA3,[1]; CBDV 100 μM,78.5 ± 6.6 % of control
same,Burst amplitude (% of control) DG,[1]; CBDV 100 μM,79.5 ± 5.6 % of control
same,Burst duration (% of control) DG,[1]; CBDV 100 μM,75.6 ± 5.4 % of control
same,Burst amplitude (% of control) CA1,[2]; CBDV 1 μM,89.3 ± 5.6 % of control
same,Burst duration (% of control) CA1,[2]; CBDV 1 μM,104.3 ± 8.0 % of control
same,Burst amplitude (% of control) CA3,[2]; CBDV 1 μM,103.0 ± 5.8 % of control
same,Burst duration (% of control) CA3,[2]; CBDV 1 μM,91.0 ± 6.0 % of control
same,Burst amplitude (% of control) DG,[2]; CBDV 1 μM,94.2 ± 3.0 % of control
same,Burst duration (% of control) DG,[2]; CBDV 1 μM,95.7 ± 5.9 % of control
same,Burst amplitude (% of control) CA1,[2]; CBDV 10 μM,88.3 ± 5.2 % of control
same,Burst duration (% of control) CA1,[2]; CBDV 10 μM,85.9 ± 6.2 % of control
same,Burst amplitude (% of control) CA3,[2]; CBDV 10 μM,121.9 ± 17.0 % of control
same,Burst duration (% of control) CA3,[2]; CBDV 10 μM,82.5 ± 4.8 % of control
same,Burst amplitude (% of control) DG,[2]; CBDV 10 μM,91.2 ± 4.9 % of control
same,Burst duration (% of control) DG,[2]; CBDV 10 μM,83.8 ± 4.4 % of control
same,Burst amplitude (% of control) CA1,[2]; CBDV 100 μM,89.5 ± 5.3 % of control
same,Burst duration (% of control) CA1,[2]; CBDV 100 μM,85.9 ± 5.8 % of control
same,Burst amplitude (% of control) CA3,[2]; CBDV 100 μM,110.3 ± 7.0 % of control
same,Burst duration (% of control) CA3,[2]; CBDV 100 μM,79.7 ± 5.4 % of control
same,Burst amplitude (% of control) DG,[2]; CBDV 100 μM,95.9 ± 4.3 % of control
same,Burst duration (% of control) DG,[2]; CBDV 100 μM,83.4 ± 4.1 % of control
same,Incidence of Tonic convulsion,MES-induced seizure; 50 mg/kg i.p.,9/10
same,Incidence of Tonic convulsion,MES-induced seizure; 100 mg/kg i.p.,3/10*
same,Incidence of Tonic convulsion,MES-induced seizure; 200 mg/kg i.p.,3/10*
same,inhibition of the expression of hindlimb extension,MES-induced seizure; CBDV 100 and 200 mg/kg IP,significantly inhibited
same,time remaining on the rotarod (latency to fall),motor function; 100 mg/kg CBDV,86.6 s
same,time remaining on the rotarod (latency to fall),motor function; 200 mg/kg CBDV,110.0 s
same,effect on the latency to fall compared to vehicle,"motor function; CBDV at any dose (100, 200 mg/kg), P=0.253",no effect
